Assay results: ChEMBL document CHEMBL6078649, “Discovery of Chalcone Derivatives as Bifunctional Molecules with Anti-SARS-CoV-2 and Anti-inflammatory Activities” (J Nat Prod, 2024)

Test system: SARS-CoV-2
Test: Antiviral activity against SARS-CoV-2 infected in human Huh-7 cells harboring viral replicon/EGFP/Neo genes assessed as inhibition of EGFP expression incubated for 24 hrs
Type: functional, organism-based
Details: Severe acute respiratory syndrome coronavirus 2, Huh-7, 24 h

Row | Structure (SMILES) | EC50
1 | O=C(CCc1cc(O)c(O)c(O)c1)c1ccc(F)cc1 | 32.1 µM
2 | O=C(/C=C/c1c(Cl)c(O)c(O)c(O)c1Cl)c1ccc(F)cc1 | 19.9 µM
3 | O=C(/C=C/c1cc(O)c(O)c(O)c1)c1ccc(F)cc1 | 11.7 µM
4 | CC(=O)Oc1c(Cl)c(/C=C/C(=O)c2ccc(F)cc2)c(Cl)c(OC(C)=O)c1OC(C)=O | 40.3 µM
